Results as given in patent US20080003215A1, “Use of pre-dissolved pristinamycin-type and polyether ionophore type antimicrobial agents in the production of ethanol” (priority 2006, published 2008).
Like-named read-outs stand apart in the source and are kept apart here.

Legend:
[1] = cited from earlier work
[2] = Solubility of virginiamycin in several solvents (applicant's determination); assay type: physicochemical
Experimental: The solubility of virginiamycin in several solvents were determined. Each of these solvents can be useful in solubilized organic liquid comprising antimicrobial material, an emulsion of the same in water, or in both. […] Such a solution is stable, pumpable, and useful not only for treatments of ethanol-producing facilities but for a number of other uses where virginiamycin is used.

[3] = system: consortium of 6 Lactobacilli spp cultures; test: Corn mash fermentation without yeast, inoculated with Lactobacillus consortium, well-mixed or poorly-mixed fermentors; assay type: cell-based, Lactobacillus sp
Excerpt: The purpose of this experiment is to determine the efficacy of virginiamycin in three forms (DMSO-solubilized virginiamycin, Belgium powdered virginiamycin, and Brazilian powdered virginiamycin) in real corn mash fermentations against a consortium of Lactobacillus sp bacteria. No yeasts will be added. The efficacy of these forms of virginiamycin will be further tested in fermentors that will be properly (continuously) mixed and in fermentors that have improper mixing—simulating more closely the fermentor mixing conditions seen in field ethanol plants.
The first step in testing was the preparation of corn mash (i.e., Gelatinization, Liquefaction, and Saccharification). […]
The mash temperature was then decreased to 60° C. at which point 2 L water and 200 ml G-Zyme™ 480 Ethanol glucoamylase (available from Genencor, Rochester, N.Y.) were added. […] No bacterial contamination was detected in any test incubated mashes.
For each 7.6 L sterile container of mash, a 60 g aliquot was removed and divided into two 30 g sub-samples within 50 ml centrifuge tubes. […] The specific gravity of each subsample was then determined using a digital density meter (DMA-45; Anton Paar KG, Graz, Austria) which was temperature regulated to 4° C. If the readings on the density meter were off-scale, then a precise dilution of the subsamples were done and then re-read in the density meter. […]

[4] = Rate of dissolution of powdered virginiamycin in stirred water; assay type: physicochemical; conditions: 0.1 gram of 5.2 to 10 micron average particle size powder in 4 liters of water, continuously stirred
Excerpt: The solubility of monensin, virginiamycin, and similar pristinamycin-type antimicrobial agents and polyether ionophore-type antimicrobial agents in water is very low. Much more important, however, is the rate of dissolution of small granular pristinamycin-type antimicrobial agents and polyether ionophore-type antimicrobial agents in water. A 0.1 gram sample of a 5.2 to 10 micron average particle size virginiamycin was placed in a beaker with 4 liters of water, and the composition was continuously stirred. The presence of undissolved crystals was very evident.

[5] = solvent: 50% NMP/50% Ethyl lactate

For virginiamycin, the “Solubility (literature data, "virginiamycin-type" compounds)” value ([1]; solvent: 1% ethanol in water) is given as 0.002 mg/mL, the “Solubility (literature data, "virginiamycin-type" compounds)” value ([1]; solvent: DMSO) is given as > 100 mg/mL and the “Solubility (literature data, "virginiamycin-type" compounds)” value ([1]; solvent: acetone, disproportionate solubilities for Type A and Type B) is given as ~190 mg/mL. The “Solubility (literature data, "virginiamycin-type" compounds)” value ([1]; solvent: amylacetate) was > 4 mg/mL, the “Solubility (literature data, "virginiamycin-type" compounds)” value ([1]; solvent: benzene) was > 3 mg/mL and the “Solubility (literature data, "virginiamycin-type" compounds)” value ([1]; solvent: butanol) was > 10 mg/mL. For the same substance, the “Solubility (literature data, "virginiamycin-type" compounds)” value ([1]; solvent: carbon tetrachloride) was 0.02 mg/mL, the “Solubility (literature data, "virginiamycin-type" compounds)” value ([1]; solvent: chloroform) was 150 mg/mL and the “Solubility (literature data, "virginiamycin-type" compounds)” value ([1]; solvent: dimethylformamide) was 200 mg/mL. The “Virginiamycin that can be dissolved (literature data)” value ([1]; solvent: dimethylformamide) was 200 grams, the “Virginiamycin that can be dissolved (literature data)” value ([1]; solvent: dimethylsulfoxide) was 200 grams and the “Solubility (literature data, "virginiamycin-type" compounds)” value ([1]; solvent: dioxane) was 130 mg/mL. The “Solubility (literature data, "virginiamycin-type" compounds)” value ([1]; solvent: ethanol) was 70 mg/mL, the “Solubility (literature data, "virginiamycin-type" compounds)” value ([1]; solvent: ether, disproportionate solubilities for Type A and Type B) was 11 mg/mL and the “Solubility (literature data, "virginiamycin-type" compounds)” value ([1]; solvent: ethyl acetate, disproportionate solubilities for Type A and Type B) was ~205 mg/mL. The “Solubility (literature data, "virginiamycin-type" compounds)” value ([1]; solvent: hexane) was 0.2 mg/mL, the “Solubility (literature data, "virginiamycin-type" compounds)” value ([1]; solvent: isopropanol) was > 10 mg/mL and the “Solubility (literature data, "virginiamycin-type" compounds)” value ([1]; solvent: methanol) was 25 mg/mL. The “Solubility (literature data, "virginiamycin-type" compounds)” value ([1]; solvent: methylethylketone) was 35 mg/mL, the “Solubility (literature data, "virginiamycin-type" compounds)” value ([1]; solvent: toluene, disproportionate solubilities for Type A and Type B) was 82 mg/mL and the “Solubility (literature data, "virginiamycin-type" compounds)” value ([1]; solvent: water) was 0.0002 mg/mL. For the same substance, the Solubility in water ([1]; water, background statement) was 0.0001 grams/l, the “Concentration that can be dissolved” value ([2]; ethanol with water, at least 75% by weight ethanol (balance water)) was ~70000 µg/mL and the “Virginiamycin solubility in grams per liter of solvent” value ([2]; solvent: 2-ethyl hexyl lactate) was 24 grams per liter. The “Virginiamycin solubility in grams per liter of solvent” value ([2]; solvent: 2-ethyl hexyl lactate, listed as Virginiamycin) was “˜24 grams per liter”, the “Virginiamycin solubility in grams per liter of solvent” value ([2]; solvent: 50% NMP/50% DMSO) was “˜335 grams per liter” and the “Gel formation of virginiamycin solution” value [2, 5] was “forms a hard gel at 280”. The “Virginiamycin solubility in grams per liter of solvent” value [2, 5] was <200 grams per liter, the “Virginiamycin solubility in grams per liter of solvent” value ([2]; solvent: 70% ethanol/30% water) was “˜70 grams per liter” and the “Virginiamycin solubility in grams per liter of solvent” value ([2]; solvent: Dimethylsulfoxide (DMSO)) was “˜270 grams per liter”. The “Virginiamycin solubility in grams per liter of solvent” value ([2]; solvent: Ethyl lactate) was “about 92 grams per liter”, the “Virginiamycin solubility in grams per liter of solvent” value ([2]; solvent: Ethyl lactate, listed as Virginiamycin) was “˜92 grams per liter” and the “Virginiamycin solubility in grams per liter of solvent” value ([2]; solvent: Methyl soyate ester) was <1 gram per liter. For the same substance, the “Virginiamycin solubility in grams per liter of solvent” value ([2]; solvent: N,N-dimethylcapramide) was “˜70 grams per liter”, the “Virginiamycin solubility in grams per liter of solvent” value ([2]; solvent: N-methylpyrrolidone (NMP)) was “˜260 grams per liter” and the “Amount of virginiamycin dissolved per liter” value ([2]; solvent: NMP, over a short period of time) was “about 290 grams per liter”. For the same substance, the “Virginiamycin solubility in grams per liter of solvent” value ([2]; solvent: tetrahydrofurfuryl alcohol) was <160 grams per liter, the Lactobacilli killed ([3]; pre-solubilized agent, within 6 hours) was “at least 90%” and the Lactobacillus count ([3]; well mixed fermentors (150 RPM), 1 ppm virginiamycin, inoculum 5E5 CFU/ml, up to 48 h) was ≤ 1 E6 CFU/ml. For the same substance, the “Time until only a few crystals remained visible (dissolution)” value [4] was “on the order of an hour”.
